# Test results from ChEMBL document CHEMBL4316584, “All that glitters is not gold: Panning cytotoxic natural products and derivatives with a fused tricyclic backbone by the estimation of their leadlikeness for cancer treatment” (Eur J Med Chem, 2019).
# Test system: MCF7
# Assay: Cytotoxicity against human MCF7 cells after 48 hrs by MTT assay
# Type: functional, cell-based
# Details: MCF7, 48 h
row,Compound,IC50
1,COc1cc(O)c2c(c1O)C(=O)C1=C(C[C@@H](O)[C@@](C)(O)C1)C2=O,2.69 µM

# Test system: HepG2
# Assay: Cytotoxicity against human HepG2 cells after 48 hrs by MTT assay
# Type: functional, cell-based
# Details: HepG2, 48 h
row,Compound,IC50
1,COc1cc(O)c2c(c1O)C(=O)C1=C(C[C@@H](O)[C@@](C)(O)C1)C2=O,9.99 µM
2,CC(C)=CCC/C(C)=C/COc1cc(O)c2c(c1)C(=O)c1cc(C)cc(O)c1C2=O,15 µM
3,Cc1cc(O)c2c(c1)C(=O)c1cc(O)c(CN3CCN(c4ccc(F)cc4)CC3)c(O)c1C2=O,10.4 µM
4,O=C(NCCN1CCCCC1)c1cc(O)c2c(c1)C(=O)c1cc(O)cc(O)c1C2=O,19 µM
5,CCCNC1=CC(=O)c2c(O)c3c(c(O)c2C1=O)C[C@](C)(O)[C@H](O)C3,9.98 µM
6,C#CCNC1=CC(=O)c2c(O)c3c(c(O)c2C1=O)C[C@](C)(O)[C@H](O)C3,10.9 µM
7,O=c1c2ccc(O)cc2oc2cccc(O)c12,18.4 µM
8,CCOP(=O)(OCC)C(C)(NC(=O)c1cc(O)c2c(c1)C(=O)c1cccc(O)c1C2=O)c1ccccc1 (stereo not given),18.2 µM
9,CCOP(=O)(OCC)C(C)(NC(=O)c1cc(O)c2c(c1)C(=O)c1cccc(O)c1C2=O)c1ccc(C)cc1 (stereo not given),15.1 µM
10,CCN(CC)CCOc1cc(O)c2c(c1)C(=O)c1cc(C)cc(O)c1C2=O,5.64 µM

# Test system: KB
# Assay: Cytotoxicity against human KB cells after 48 hrs by MTT assay
# Type: functional, cell-based
# Details: not given
row,Compound,IC50
1,COc1cc2oc3cc(O)c(CC=C(C)C)c(O)c3c(=O)c2c(CC=C(C)C)c1OC,12.8 µM
2,CC(C)=CCC/C(C)=C/Cc1c(O)ccc2oc3cc(O)cc(O)c3c(=O)c12,14.5 µM
3,N#CC1=C(N)Oc2c(ccc3ccccc23)C1c1ccc(Cl)cc1 (stereo not given),14.7 µM
4,COc1cc2oc3cc(O)c(OC)c(CC=C(C)C)c3c(=O)c2c(O)c1C/C=C(/C)CO,15.5 µM
5,CC(C)=CCC/C(C)=C/Cc1c(O)c(O)cc2oc3cc(O)c(CC=C(C)C)c(O)c3c(=O)c12 [NORCOWANIN],10.4 µM
6,N#CC1=C(N)Oc2c(ccc3ccccc23)C1c1ccc([N+](=O)[O-])cc1 (stereo not given),20 µM
7,COc1c(O)cc2oc3cc(O)c(CC=C(C)C)c(O)c3c(=O)c2c1CC=C(C)C [MANGOSTIN],14.1 µM
8,N#CC1=C(N)Oc2ccc3ccccc3c2C1c1ccc(Cl)cc1 (stereo not given),11.7 µM
9,COc1c(O)cc2oc3cc(O)c(C/C=C(/C)CO)c(O)c3c(=O)c2c1C/C=C(\C)CCC=C(C)C [COWANOL],12 µM

# Test system: K562
# Assay: Cytotoxicity against human K562 cells after 48 hrs by MTT assay
# Type: functional, cell-based
# Details: K562, 48 h
row,Compound,IC50
1,CCn1c2c(c3ccccc31)CCC(CN1CCOCC1)C2=O (stereo not given),13.8 µM
2,CN(C)CC1CCc2c(n(C)c3ccccc23)C1=O (stereo not given),17.3 µM
3,CC(C)c1cc2c(cc1O)[C@@]1(C)CCCC(C)(C)[C@@H]1CC2=O [SUGIOL],6.7 µM
4,COc1cc(Cn2c3ccc(NC(=O)CCN(C)C)cc3c(=O)c3cc(NC(=O)CCN(C)C)ccc32)cc(OC)c1,4.7 µM
5,C=CCn1c2c(c3ccccc31)CCC(CN(C)C)C2=O (stereo not given),3.29 µM
6,COCCOCSc1nnc(-c2cccnc2)n1/N=C/c1c2ccccc2cc2ccccc12,0.09 µM
7,CC(C)c1cc2c(cc1O)[C@@]1(C)CCCC(C)(C)[C@@H]1C(=O)C2,15.9 µM

# Test system: HL-60
# Assay: Cytotoxicity against human HL60 cells after 48 hrs by MTT assay
# Type: functional, cell-based
# Details: HL-60, 48 h
row,Compound,IC50
1,CC(CO)c1cc2c(cc1O)[C@@]1(C)CCCC(C)(C)[C@@H]1CC2 (stereo not given in full),16.2 µM
2,COC1=CC(=O)C[C@@]2(OC)Oc3ccccc3C[C@@]12O,4.08 µM
3,CC(C)c1cc2c(cc1O)[C@@]1(C)C[C@H](O)CC(C)(C)[C@@H]1CC2,17 µM
4,COC1=CC(=O)C[C@@]2(OC)Oc3ccc(O)cc3C[C@@]12O,10.6 µM

# Test system: MDA-MB-231
# Assay: Cytotoxicity against human MDA-MB-231 cells after 48 hrs by MTT assay
# Type: functional, cell-based
# Details: MDA-MB-231, 48 h
row,Compound,IC50
1,Cc1cc(O)c2c(c1)C(=O)c1cc(O)c(CN3CCN(C)CC3)c(O)c1C2=O,10.4 µM
2,CCOC(=O)C(C)(C)Oc1cc(O)c2c(c1)C(=O)c1cc(C)cc(O)c1C2=O,7.72 µM
3,Cc1cc(O)c2c(c1)C(=O)c1cc(OCCN3CCOCC3)cc(O)c1C2=O,4.24 µM
4,CC(=O)Oc1cc(OC(C)=O)c2c(c1)C(=O)c1cc(C(=O)O)cc(OC(C)=O)c1C2=O,8.1 µM
5,CC(=O)Oc1cc(OC(C)=O)c2c(c1)C(=O)c1cc(C)cc(OC(C)=O)c1C2=O [EMODIN TRIACETATE],2.14 µM
6,N#CC1=C(N)Oc2c(ccc3ccccc23)C1c1cccc([N+](=O)[O-])c1 (stereo not given),18.1 µM
7,N#CC1=C(N)Oc2ccc3ccccc3c2C1c1ccc(Br)cc1 (stereo not given),6.1 µM
8,Cc1cc(O)c2c(c1)C(=O)c1cc(O)c(CN3CCCCC3)c(O)c1C2=O,12.3 µM

# Test system: HL-60
# Assay: Cytotoxicity against human HL60 cells after 48 hrs by MTS assay
# Type: functional, cell-based
# Details: HL-60, 48 h
row,Compound,IC50
1,c1ccc2c(c1)c1ccccc1n2CCCCCn1ccnc1,14.4 µM
